In the supplement of paper PMC10307832:

Experiments:
Assay in all cases: relative viability (nuclei count vs DMSO), 5 days (fraction); higher = more cells survive
[1] = compound: CC1=CC(=NN1)NC2=CC(=NC(=N2)/C=C/C3=CC=CC=C3)N4CCN(CC4)C + C[C@]1(O)C[C@@H](c2nc(-c3ccc4ccc(-c5ccccc5)nc4c3)c3c(N)nccn32)C1 [Linsitinib] (partner 1 µM)
In short: (§1)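 Lung cancer cell lines were seeded in 1536-well plates and dosed by pin tool the next day, with either a single drug or a fixed anchor-drug dose combined with five library-drug doses (not always all listed) spaced in √10 steps. Five days later, one step fixed the cells and stained their nuclei (final 0.05% Triton X-100, 1% formaldehyde, 1 ug/ml Hoechst), and nuclei were counted on 4× images. Relative viability is the nuclei count in treated wells divided by the count in vehicle wells, and each value is the median of duplicate plates.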

Bortezomib + Vorinostat = compound: CC(C)C[C@H](NC(=O)[C@H](Cc1ccccc1)NC(=O)c1cnccn1)B(O)O [Bortezomib] + O=C(CCCCCCC(=O)Nc1ccccc1)NO [Vorinostat] (partner 1 µM)
In short: as §1

[2] = compound: CC1=CC(=NN1)NC2=CC(=NC(=N2)/C=C/C3=CC=CC=C3)N4CCN(CC4)C + CS(=O)(=O)CCNCc1ccc(-c2ccc3ncnc(Nc4ccc(OCc5cccc(F)c5)c(Cl)c4)c3c2)o1 [Lapatinib] (partner 2 µM)
In short: as §1

Obatoclax + Phenformin = compound: COC1=CC(c2cc3ccccc3[nH]2)=N/C1=C\c1[nH]c(C)cc1C [Obatoclax] + N=C(N)NC(=N)NCCc1ccccc1 [Phenformin] (partner 250 µM)
In short: as §1

| Cell Line | relative viability ([1]; first compound 0.08 µM) | relative viability ([1]; first compound 0.253 µM) | relative viability ([1]; first compound 0.8 µM) | relative viability ([1]; first compound 2.53 µM) | relative viability ([1]; first compound 8 µM) | relative viability (Bortezomib + Vorinostat; first compound 0.0002 µM) | relative viability (Bortezomib + Vorinostat; first compound 0.000632 µM) | relative viability (Bortezomib + Vorinostat; first compound 0.002 µM) | relative viability (Bortezomib + Vorinostat; first compound 0.006325 µM) | relative viability (Bortezomib + Vorinostat; first compound 0.02 µM) | relative viability ([2]; first compound 0.08 µM) | relative viability ([2]; first compound 0.253 µM) | relative viability ([2]; first compound 0.8 µM) | relative viability ([2]; first compound 2.53 µM) | relative viability ([2]; first compound 8 µM) | relative viability (Obatoclax + Phenformin; first compound 0.01 µM) | relative viability (Obatoclax + Phenformin; first compound 0.03162 µM) | relative viability (Obatoclax + Phenformin; first compound 0.1 µM) | relative viability (Obatoclax + Phenformin; first compound 0.3162 µM) | relative viability (Obatoclax + Phenformin; first compound 1 µM) |
| --- | --- | --- | --- | --- | --- | --- | --- | --- | --- | --- | --- | --- | --- | --- | --- | --- | --- | --- | --- | --- |
| NCI-H1734 | 0.907 | 0.867 | 0.917 | 0.478 | 0.196 | 0.832 | 0.845 | 0.635 | 0.115 | 0.0944 | 0.968 | 1.06 | 0.958 | 0.577 | 0.145 | 0.436 | 0.341 | 0.318 | 0.318 | 0.32 |
| HCC-15 | 0.908 | 0.967 | 0.853 | 0.469 | 0.149 | 0.864 | 0.892 | 0.729 | 0.107 | 0.094 | 0.867 | 0.856 | 0.835 | 0.319 | 0.167 | 0.486 | 0.432 | 0.348 | 0.438 | 0.327 |
| SK-LU-1 | 0.93 | 1.18 | 0.84 | 0.238 | 0.142 | 0.733 | 0.84 | 0.314 | 0.178 | 0.186 | 0.861 | 0.959 | 0.699 | 0.386 | 0.116 | 0.587 | 0.507 | 0.414 | 0.246 | 0.244 |
| NCI-H2023 | 0.63 | 0.725 | 0.581 | 0.382 | 0.0796 | 0.813 | 0.423 | 0.618 | 0.078 | 0.0655 | 0.849 | 0.92 | 0.765 | 0.0727 | 0.0496 | 0.387 | 0.438 | 0.425 | 0.293 | 0.152 |
| HCC-366 | 0.478 | 1.13 | 0.64 | 0.102 | 0.0084 | 0.352 | 0.377 | 0.33 | 0.113 | 0.026 | 0.928 | 1.13 | 0.996 | 0.0251 | 0.0162 | 0.581 | 0.565 | 0.657 | 0.628 | 0.478 |
| NCI-H1355 | 0.797 | 0.843 | 0.779 | 0.62 | 0.41 | 0.632 | 0.657 | 0.696 | 0.416 | 0.121 | 1.11 | 1.03 | 0.944 | 0.645 | 0.422 | 0.456 | 0.458 | 0.431 | 0.44 | 0.397 |
| SW 1573 | 0.737 | 0.78 | 0.607 | 0.502 | 0.124 | 0.676 | 1.02 | 0.313 | 0.0435 | 0.0242 | 1.08 | 1.34 | 1.11 | 0.906 | 0.134 | 0.333 | 0.31 | 0.282 | 0.24 | 0.153 |
| NCI-H661 | 0.618 | 0.579 | 0.663 | 0.44 | 0.182 | 0.747 | 0.74 | 0.758 | 0.269 | 0.295 | 0.489 | 0.53 | 0.57 | 0.419 | 0.146 | 0.284 | 0.256 | 0.262 | 0.263 | 0.234 |
| LU99A | 0.489 | 0.485 | 0.466 | 0.228 | 0.138 | 0.479 | 0.427 | 0.533 | 0.464 | 0.152 | 0.958 | 0.943 | 0.728 | 0.252 | 0.125 | 0.885 | 0.854 | 0.74 | 0.77 | 0.417 |
| LCLC-97TM1 | 0.185 | 0.205 | 0.204 | 0.165 | 0.112 | 0.615 | 0.695 | 0.748 | 0.148 | 0.0598 | 1.29 | 1.06 | 0.922 | 0.158 | 0.0857 | 0.417 | 0.408 | 0.458 | 0.485 | 0.421 |
| LC-2-ad | 0.732 | 0.803 | 0.473 | 0.122 | 0.0815 | 0.74 | 0.68 | 0.665 | 0.209 | 0.185 | 0.701 | 0.928 | 0.899 | 0.0949 | 0.0594 | 0.637 | 0.49 | 0.541 | 0.585 | 0.499 |
| NCI-H1395 | 1 | 1.15 | 1.04 | 0.533 | 0.361 | 0.762 | 0.547 | 0.515 | 0.301 | 0.306 | 1.22 | 1.03 | 0.932 | 0.456 | 0.275 | 0.449 | 0.38 | 0.428 | 0.467 | 0.44 |
| NCI-H2228 | 0.776 | 0.709 | 0.506 | 0.154 | 0.0965 | 0.694 | 0.73 | 0.101 | 0.124 | 0.108 | 1.16 | 0.85 | 0.685 | 0.103 | 0.0435 | 0.339 | 0.387 | 0.3 | 0.285 | 0.159 |
| HOP-62 | 0.959 | 1.11 | 0.99 | 0.875 | 0.326 | 0.589 | 0.654 | 0.6 | 0.131 | 0.0601 | 1.06 | 0.973 | 0.956 | 0.558 | 0.307 | 0.693 | 0.699 | 0.604 | 0.662 | 0.404 |
| NCI-H2347 | 0.844 | 1.05 | 0.99 | 0.93 | 0.614 | 0.621 | 0.526 | 0.384 | 0.28 | 0.235 | 0.908 | 0.95 | 1.04 | 0.938 | 0.99 | 0.496 | 0.366 | – | 0.506 | 0.517 |
| NCI-H2087 | 0.982 | 0.909 | 0.965 | 0.723 | 0.203 | 0.465 | 0.886 | 0.555 | 0.0577 | 0.0279 | 1.01 | 1.02 | 1.03 | 0.582 | 0.188 | 0.423 | 0.372 | 0.513 | 0.344 | 0.193 |
